Consider seven compounds from patent US6534482B1, “Expression vectors for stimulating an immune response and methods of using the same” (priority 1998, dated 2003).

The test system of one assay is CTL response. The arrangement: species or system HLA-A2.1/K^b-H-2^bxs transgenic mice. To be noted: mouse; for immunogenicity of the peptide administered in IFA (in words): in vivo; for Immunogenicity In Vivo (IFA): No. CTL-Positive Cultures: sc.
The subject of assay [1] is mouse and human MHC class II haplotypes. To be noted: wide range of mouse and human MHC class II haplotypes; cited from earlier work.
The conditions of assay [2]: mouse, in vivo; cited from earlier work.

“Also recorded” adds a separate entry of the source.

`CC(C)C[C@H](NC(=O)[C@H](CO)NC(=O)[C@H](CC(C)C)NC(=O)[C@@H](N)Cc1c[nH]c2ccccc12)C(=O)N[C@@H](CC(C)C)C(=O)N[C@H](C(=O)N1CCC[C@H]1C(=O)N[C@@H](Cc1ccccc1)C(=O)N[C@H](C(=O)O)C(C)C)C(C)C` [HBV Env 335]: in the assay with CTL response, the “Immunogenicity In Vivo (IFA): CTL Response (Geo. Mean ΔLU)” value (from here on “Immunogenicity In Vivo … (Geo. Mean ΔLU)”) is 5.3 (1.6) ΔLU, the “immunogenicity of the peptide administered in IFA (in words)” value is listed as “immunogenic” and the “Immunogenicity In Vivo (IFA): No. CTL-Positive Cultures” value is given as 4/6.

With `CSCC[C@H](NC(=O)[C@@H](N)Cc1ccc(O)cc1)C(=O)N[C@@H](CC(=O)O)C(=O)N[C@@H](CC(=O)O)C(=O)N[C@H](C(=O)N[C@H](C(=O)N[C@@H](CC(C)C)C(=O)NCC(=O)N[C@@H](C)C(=O)O)C(C)C)C(C)C` [HBV Pol 55 1-A], in the assay with CTL response, the “immunogenicity of the peptide administered in IFA (in words)” value was “weakly or nonimmunogenic; also recorded: essentially nonimmunogenic” and the “Immunogenicity In Vivo (IFA): No. CTL-Positive Cultures” value is 0/6.

For `CC(C)C[C@H](NC(=O)[C@@H](NC(=O)[C@@H](N)CO)[C@@H](C)O)C(=O)N1CCC[C@H]1C(=O)N[C@@H](CCC(=O)O)C(=O)N[C@H](C(=O)N[C@H](C(=O)N[C@H](C(=O)N[C@H](C(=O)N[C@@H](CCCNC(=N)N)C(=O)N[C@@H](CCCNC(=N)N)C(=O)O)C(C)C)C(C)C)[C@@H](C)O)[C@@H](C)O` [HBV Core 141], in the assay with CTL response, the “Immunogenicity In Vivo … (Geo. Mean ΔLU)” value is listed as 12.1 (2.6) ΔLU and the “Immunogenicity In Vivo (IFA): No. CTL-Positive Cultures” value is 6/6.

Regarding AKFVAAWTLKAAA [PADRE], in assay [1], the “MHC binding affinity (in words)” value is reported as “high MHC binding affinity”. Further, the “immunogenicity in H-2^b mice (in words)” value in assay [2] is on record as “highly immunogenic”.

In the case of `CC[C@H](C)[C@H](N)C(=O)N[C@@H](CC(C)C)C(=O)N[C@@H](CCCCN)C(=O)N[C@@H](CCC(=O)O)C(=O)N1CCC[C@H]1C(=O)N[C@H](C(=O)N[C@@H](Cc1c[nH]cn1)C(=O)NCC(=O)N[C@H](C(=O)O)C(C)C)C(C)C` [HIV Pol 476], in the assay with CTL response, the “Immunogenicity In Vivo … (Geo. Mean ΔLU)” value is reported as 15.2 (2.9) ΔLU and the “Immunogenicity In Vivo (IFA): No. CTL-Positive Cultures” value was 2/5.

Turning to `CC[C@H](C)[C@H](NC(=O)CNC(=O)[C@H](C)NC(=O)[C@H](CCCCN)NC(=O)[C@H](Cc1c[nH]c2ccccc12)NC(=O)[C@H](CC(C)C)NC(=O)[C@@H](NC(=O)[C@@H](N)Cc1c[nH]cn1)[C@@H](C)O)C(=O)N[C@@H](CC(C)C)C(=O)N[C@@H](Cc1ccc(O)cc1)C(=O)N[C@@H](CCCCN)C(=O)O` [HBV Pol 149], in the assay with CTL response, the “Immunogenicity In Vivo … (Geo. Mean ΔLU)” value is given as 13.1 (1.2) ΔLU and the “Immunogenicity In Vivo (IFA): No. CTL-Positive Cultures” value is listed as 6/6.

For the compound `CC(C)[C@H](NC(=O)[C@@H](N)[C@@H](C)O)C(=O)N[C@@H](Cc1ccc(O)cc1)C(=O)N[C@@H](Cc1ccc(O)cc1)C(=O)NCC(=O)N[C@H](C(=O)N1CCC[C@H]1C(=O)N[C@H](C(=O)N[C@@H](Cc1c[nH]c2ccccc12)C(=O)N[C@@H](CCCCN)C(=O)O)C(C)C)C(C)C` [HIV Env 49], in the assay with CTL response, the “Immunogenicity In Vivo … (Geo. Mean ΔLU)” value is listed as 13.4 (3.1) ΔLU and the “Immunogenicity In Vivo (IFA): No. CTL-Positive Cultures” value is given as 28/33.
